Assays:
Experiment in all cases: ATP level assay (CellTiter-Glo), percent of control
Assay type in all cases: cell-based
MCF7 (breast cancer) = conditions: two hour incubation; for activity at 100 µM: Homo sapiens, MCF7, 2 h, compound alone, control DMSO, read-out: POC (percent of control) MCF7
T47D (breast cancer) = conditions: two hour incubation; for activity at 100 µM: Homo sapiens, T47D, 2 h, compound alone, control DMSO, read-out: POC (percent of control) T47D
HeLa (cervical cancer) = conditions: two hour incubation; for activity at 100 µM: Homo sapiens, HeLa, 2 h, compound alone, control DMSO, read-out: POC (percent of control) HeLa
NCI-H196 (lung cancer) = conditions: two hour incubation; for activity at 100 µM: NCI-H196, 2 h, compound alone, control DMSO, read-out: POC (percent of control) NCI-H196
SkBr3 (breast cancer) = conditions: two hour incubation; for activity at 100 µM: Homo sapiens, SK-BR-3, 2 h, compound alone, control DMSO, read-out: POC (percent of control) SkBr3
[1] = tested on: MCF10A (non-cancerous breast); conditions: two hour incubation; for activity at 100 µM: Homo sapiens, MCF-10A, 2 h, compound alone, control DMSO, read-out: POC (percent of control) MCF10A
MDA-MB (breast cancer) = conditions: two hour incubation; for activity at 100 µM: 2 h, compound alone, control DMSO, read-out: POC (percent of control) MDA-MB
H293 (kidney cancer) = conditions: two hour incubation; for activity at 100 µM: 2 h, compound alone, control DMSO, read-out: POC (percent of control) H293
HDF (normal cells) = conditions: two hour incubation; for activity at 100 µM: 2 h, compound alone, control DMSO, read-out: POC (percent of control) HDF
PC3 (prostate cancer) = conditions: two hour incubation; for activity at 100 µM: 2 h, compound alone, control DMSO, read-out: POC (percent of control) PC3
[2] = tested on: BxPC3 (pancreatic cancer); conditions: two hour incubation; for activity at 100 µM: Homo sapiens, BXPC-3, 2 h, compound alone, control DMSO, read-out: POC (percent of control) BxPC3
[3] = compound 100 uM + 2DG (about 10-20 mM)
[4] = compound 100 uM + rotenone (approximately 1.25 μM)

Structure (SMILES)	activity at 100 µM (MCF7 (breast cancer))	POC (percent of control) MCF7 (MCF7 (breast cancer); [3])	POC (percent of control) MCF7 (MCF7 (breast cancer); [4])	activity at 100 µM (T47D (breast cancer))	POC (percent of control) T47D (T47D (breast cancer); [3])	POC (percent of control) T47D (T47D (breast cancer); [4])	activity at 100 µM (HeLa (cervical cancer))	POC (percent of control) HeLa (HeLa (cervical cancer); [3])	POC (percent of control) HeLa (HeLa (cervical cancer); [4])	activity at 100 µM (NCI-H196 (lung cancer))	POC (percent of control) NCI-H196 (NCI-H196 (lung cancer); [3])	POC (percent of control) NCI-H196 (NCI-H196 (lung cancer); [4])	activity at 100 µM (SkBr3 (breast cancer))	POC (percent of control) SkBr3 (SkBr3 (breast cancer); [3])	POC (percent of control) SkBr3 (SkBr3 (breast cancer); [4])	activity at 100 µM [1]	POC (percent of control) MCF10A [1, 3]	POC (percent of control) MCF10A [1, 4]	activity at 100 µM (MDA-MB (breast cancer))	POC (percent of control) MDA-MB (MDA-MB (breast cancer); [3])	further results
COc1ccc(S(=O)(=O)NCc2c[nH]c3ccccc23)cc1 [Compound 23, N-(1H-indol-3-ylmethyl)-4-methoxybenzenesulfonamide]	96.3%	93.6% of control	121.1% of control	54%	46.6% of control	71.7% of control	84.1%	86.9% of control	93.7% of control	93%	83.5% of control	85.6% of control	85.9%	75.5% of control	87.7% of control	85%	82.8% of control	85.1% of control	98.6%	85.9% of control	POC (percent of control) MDA-MB (MDA-MB (breast cancer); [4]): 83% of control; activity at 100 µM (H293 (kidney cancer)): 92.1%; POC (percent of control) H293 (H293 (kidney cancer); [3]): 47.4% of control; POC (percent of control) H293 (H293 (kidney cancer); [4]): 65.3% of control; activity at 100 µM (HDF (normal cells)): 74.6%; POC (percent of control) HDF (HDF (normal cells); [3]): 90.6% of control; POC (percent of control) HDF (HDF (normal cells); [4]): 119.9% of control; activity at 100 µM (PC3 (prostate cancer)): 77.3%; POC (percent of control) PC3 (PC3 (prostate cancer); [3]): 92.9% of control; POC (percent of control) PC3 (PC3 (prostate cancer); [4]): 87.9% of control; activity at 100 µM [2]: 95.9%; POC (percent of control) BxPC3 [2, 4]: 78.5% of control
O=S(=O)(NCc1ccco1)c1ccc(Cl)cc1 [Compound 20, 4-chloro-N-(furan-2-ylmethyl)benzenesulfonamide]	138%	87.3% of control	124.6% of control	73.9%	69.7% of control	101.6% of control	103%	91.7% of control	117.2% of control	100%	90.6% of control	102.1% of control	104%	96.7% of control	102.5% of control	102%	78.1% of control	102.9% of control	97.4%	82.9% of control	POC (percent of control) MDA-MB (MDA-MB (breast cancer); [4]): 98.5% of control; activity at 100 µM (H293 (kidney cancer)): 104%; POC (percent of control) H293 (H293 (kidney cancer); [3]): 84.4% of control; POC (percent of control) H293 (H293 (kidney cancer); [4]): 69.4% of control; activity at 100 µM (HDF (normal cells)): 90.9%; POC (percent of control) HDF (HDF (normal cells); [3]): 88.1% of control; POC (percent of control) HDF (HDF (normal cells); [4]): 103.1% of control; activity at 100 µM (PC3 (prostate cancer)): 91.1%; POC (percent of control) PC3 (PC3 (prostate cancer); [3]): 83.8% of control; POC (percent of control) PC3 (PC3 (prostate cancer); [4]): 100.4% of control; activity at 100 µM [2]: 95.8%; POC (percent of control) BxPC3 [2, 3]: 86.4% of control; POC (percent of control) BxPC3 [2, 4]: 94.8% of control
Cn1ncc2cc(CNS(=O)(=O)c3ccc(Cl)cc3)ccc21 [Compound 10, 4-chloro-N-[(1-methyl-1H-indazol-5-yl)methyl]benzenesulfonamide]	115%	121.2% of control	89.4% of control	63.5%	76.6% of control	91.4% of control	106%	91.3% of control	85.5% of control	106%	90.8% of control	103.7% of control	90.8%	98% of control	107.3% of control	92%	100.4% of control	83.5% of control	94.1%	86.7% of control	POC (percent of control) MDA-MB (MDA-MB (breast cancer); [4]): 87.4% of control; activity at 100 µM (H293 (kidney cancer)): 106%; POC (percent of control) H293 (H293 (kidney cancer); [3]): 84% of control; POC (percent of control) H293 (H293 (kidney cancer); [4]): 70.8% of control; activity at 100 µM (HDF (normal cells)): 88.6%; POC (percent of control) HDF (HDF (normal cells); [3]): 92.7% of control; POC (percent of control) HDF (HDF (normal cells); [4]): 82.2% of control; activity at 100 µM (PC3 (prostate cancer)): 115%; POC (percent of control) PC3 (PC3 (prostate cancer); [3]): 97.8% of control; POC (percent of control) PC3 (PC3 (prostate cancer); [4]): 98.7% of control; activity at 100 µM [2]: 66.3%; POC (percent of control) BxPC3 [2, 3]: 62.9% of control; POC (percent of control) BxPC3 [2, 4]: 54.4% of control
Cc1ccc(S(=O)(=O)NCc2c[nH]c3ccccc23)cc1 [Compound 1, N-[(1H-indol-3-yl)methyl]-4-methylbenzenesulfonamide]	103%	86.8% of control	79.6% of control	53.2%	43.2% of control	76.6% of control	95%	66.3% of control	78.7% of control	90.8%	68.8% of control	83.2% of control	97.7%	72.9% of control	91.2% of control	73.3%	86.7% of control	69% of control	78.1%	62% of control	POC (percent of control) MDA-MB (MDA-MB (breast cancer); [4]): 80.5% of control; activity at 100 µM (H293 (kidney cancer)): 92.8%; POC (percent of control) H293 (H293 (kidney cancer); [3]): 48.2% of control; POC (percent of control) H293 (H293 (kidney cancer); [4]): 69% of control; activity at 100 µM (HDF (normal cells)): 98.5%; POC (percent of control) HDF (HDF (normal cells); [3]): 85% of control; POC (percent of control) HDF (HDF (normal cells); [4]): 107.7% of control; activity at 100 µM (PC3 (prostate cancer)): 91.7%; POC (percent of control) PC3 (PC3 (prostate cancer); [3]): 57.3% of control; POC (percent of control) PC3 (PC3 (prostate cancer); [4]): 72.6% of control; activity at 100 µM [2]: 97.1%; POC (percent of control) BxPC3 [2, 4]: 86.6% of control
Cc1ccc(S(=O)(=O)NCc2ccc3ncccc3c2)cc1 [Compound 22, 4-methyl-N-(quinolin-6-ylmethyl)benzenesulfonamide]	113%	107.1% of control	96.4% of control	85.3%	62.5% of control	109.3% of control	101%	94.5% of control	105.2% of control	117%	94.6% of control	94.2% of control	106%	83.5% of control	93.5% of control	105%	70.2% of control	96.9% of control	96.7%	86.5% of control	POC (percent of control) MDA-MB (MDA-MB (breast cancer); [4]): 87.1% of control; activity at 100 µM (H293 (kidney cancer)): 122%; POC (percent of control) H293 (H293 (kidney cancer); [3]): 69.9% of control; POC (percent of control) H293 (H293 (kidney cancer); [4]): 90.9% of control; activity at 100 µM (HDF (normal cells)): 89.7%; POC (percent of control) HDF (HDF (normal cells); [3]): 76.3% of control; POC (percent of control) HDF (HDF (normal cells); [4]): 85.5% of control; activity at 100 µM (PC3 (prostate cancer)): 93%; POC (percent of control) PC3 (PC3 (prostate cancer); [3]): 94.5% of control; POC (percent of control) PC3 (PC3 (prostate cancer); [4]): 108.2% of control; activity at 100 µM [2]: 99.1%; POC (percent of control) BxPC3 [2, 4]: 70.8% of control
